# Literature values, collected in patent US20040235935A1, “Oral pharmaceutical composition containing a statin derivative” (priority 2001, published 2004).
# Where two headings read alike, the source gives them in different places.
# Legend:
# [1] = for Vsol = volume of water required to completely dissolve a 20 mg dose: solubility at pH 5
# [2] = not given; remark: listed apart in the source
# [3] = not given; remark: listed apart in the source
# [4] = healthy humans, oral dose 20 mg
# [5] = healthy humans, oral dose 40 mg
Vsol = volume of water required to completely dissolve a 20 mg dose [1],Solubility in water ([1]; at pH 5) [µg/mL],AUC = area under plasma concentration-time curve [4] [ng·h/mL],Cmax = maximum plasma drug concentration [4] [ng/mL],pKa [2],SMILES,further results
111 mL,180,,,,CC[C@H](C)C(=O)O[C@H]1C[C@H](O)C=C2C=C[C@H](C)[C@H](CC[C@@H]3C[C@@H](O)CC(=O)O3)[C@H]21 [Pravastatin Lactone],
,,,,5.5,CCC(C)(C)C(=O)O[C@H]1C[C@@H](C)C=C2C=C[C@H](C)[C@H](CC[C@@H](O)C[C@@H](O)CC(=O)O)[C@H]21 [Simvastatin Hydroxy acid],AUC = area under plasma concentration-time curve [5]: 58.1 ng·h/mL; Cmax = maximum plasma drug concentration [5]: 58.1 ng/mL; times more readily dissolved in octanol than in water ([3]; from the partition coefficients at pH 7): 126 times

# The remaining lines, values behind:
SMILES,Vsol = volume of water required to completely dissolve a 20 mg dose [1],Solubility in water ([1]; at pH 5) [µg/mL],AUC = area under plasma concentration-time curve [4] [ng·h/mL],Cmax = maximum plasma drug concentration [4] [ng/mL],pKa [2],further results
"CC(C)n1c(/C=C/C(O)CC(O)CC(=O)O)c(-c2ccc(F)cc2)c2ccccc21 (stereo not drawn) [Fluvastatin, fluvastatin]",,,167,181,5.5,"Peff = effective membrane permeability (healthy humans): 240 ×10⁻⁶ cm/s; F = bioavailability (healthy humans, oral): 10-35%; Solubility in water ([1]; at pH 6): 2000 µg/mL"
"CC[C@H](C)C(=O)O[C@H]1C[C@@H](C)C=C2C=C[C@H](C)[C@H](CC[C@@H]3C[C@@H](O)CC(=O)O3)[C@H]21 [Lovastatin Lactone, lovastatin]",15 385 ml,1.3,,,,D = partition coefficient (logarithm of partition ratio between octanol and water at pH 7) ([3]; pH 7): 4.3
CCC(C)C(=O)OC1CC(C)C=C2C=CC(C)C(CCC(O)CC(O)CC(=O)[O-])C21.[Na+] (stereo not drawn) [Lovastatin Hydroxy acid],,,,,5.5,"tmax = time to Cmax (human, in vivo, po, 20 mg): 2.8 h; fa = fraction of the administered dose absorbed (in vivo): ˜31%"
"CC[C@H](C)C(=O)O[C@H]1C[C@H](O)C=C2C=C[C@H](C)[C@H](CC[C@@H](O)C[C@@H](O)CC(=O)O)[C@H]21 [Pravastatin Hydroxy acid, pravastatin]",,300000,90.2,38.4,5.5,EH = liver extraction ratio (healthy humans): 45%; fa = fraction of the administered dose absorbed (healthy humans): ˜34%
